# Legend:
# [1] = target: T1, Beta-2 adrenergic receptor (Homo sapiens, UniProt P07550); assay: Agonist activity at human beta2 adrenergic receptor expressed in HEK293 cells assessed as increase in cAMP accumulation after 60 mins by HTRF assay; type: functional, cell-based
# Target sequence in this assay (P07550 whole entry): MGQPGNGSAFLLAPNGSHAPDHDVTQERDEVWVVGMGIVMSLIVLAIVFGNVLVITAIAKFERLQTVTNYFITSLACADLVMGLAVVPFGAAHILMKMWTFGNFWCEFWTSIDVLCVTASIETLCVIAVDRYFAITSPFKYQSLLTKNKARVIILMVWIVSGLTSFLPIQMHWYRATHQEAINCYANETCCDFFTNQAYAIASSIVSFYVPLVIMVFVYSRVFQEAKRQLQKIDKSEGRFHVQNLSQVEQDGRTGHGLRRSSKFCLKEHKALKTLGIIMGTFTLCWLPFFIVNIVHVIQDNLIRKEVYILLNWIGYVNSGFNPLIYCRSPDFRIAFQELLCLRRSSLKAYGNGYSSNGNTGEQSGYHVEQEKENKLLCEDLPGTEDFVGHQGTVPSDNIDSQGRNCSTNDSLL
# [2] = target: Beta-1 adrenergic receptor (Homo sapiens, UniProt P08588); assay: Agonist activity at human beta1 adrenergic receptor expressed in HEK293 cells assessed as increase in cAMP accumulation after 60 mins by HTRF assay; type: functional, cell-based
# Sequence of Beta-1 adrenergic receptor (P08588 whole entry): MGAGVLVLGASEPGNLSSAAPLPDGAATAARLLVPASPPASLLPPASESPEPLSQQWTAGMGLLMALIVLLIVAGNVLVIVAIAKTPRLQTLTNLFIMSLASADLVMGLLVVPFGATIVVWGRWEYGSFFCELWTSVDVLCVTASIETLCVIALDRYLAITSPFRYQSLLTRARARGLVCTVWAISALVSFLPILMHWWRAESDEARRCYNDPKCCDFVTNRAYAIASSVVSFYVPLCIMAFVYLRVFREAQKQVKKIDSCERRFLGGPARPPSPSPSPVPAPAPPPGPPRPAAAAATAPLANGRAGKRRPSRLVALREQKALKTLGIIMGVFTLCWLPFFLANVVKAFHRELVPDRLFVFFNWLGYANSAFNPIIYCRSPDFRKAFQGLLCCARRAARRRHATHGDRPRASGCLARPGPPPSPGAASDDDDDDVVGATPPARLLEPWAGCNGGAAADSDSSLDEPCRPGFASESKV
# Homo sapiens = species: Homo sapiens; assay: Selectivity ratio of pEC50 for human beta2 adrenergic receptor expressed in HEK293 cells to pEC50 for human beta1 adrenergic receptor expressed in HEK293 cells; type: cell-based
# Smooth muscle of trachea [3] = assay: Reduction in histamine-induced muscle contractions in Dunkin-Hartley guinea pig tracheal smooth muscle ring by measuring muscle tone relative to control; type: functional; conditions: Cavia porcellus
# [4] = Intrinsic clearance in human liver microsomes at 10 uM after 10 mins in presence of NADPH by LC/MS/MS analysis; type: ADME, microsome; conditions: read-out: CLH
# [5] = Half life in human liver microsomes at 10 uM by LC/MS/MS analysis; type: ADME, microsome
# [6] = target: Beta-3 adrenergic receptor (Homo sapiens, UniProt P13945); assay: Agonist activity at human beta3 adrenergic receptor expressed in HEK293 cells assessed as increase in cAMP accumulation after 60 mins by HTRF assay; type: functional, cell-based
# Sequence of Beta-3 adrenergic receptor (P13945 whole entry): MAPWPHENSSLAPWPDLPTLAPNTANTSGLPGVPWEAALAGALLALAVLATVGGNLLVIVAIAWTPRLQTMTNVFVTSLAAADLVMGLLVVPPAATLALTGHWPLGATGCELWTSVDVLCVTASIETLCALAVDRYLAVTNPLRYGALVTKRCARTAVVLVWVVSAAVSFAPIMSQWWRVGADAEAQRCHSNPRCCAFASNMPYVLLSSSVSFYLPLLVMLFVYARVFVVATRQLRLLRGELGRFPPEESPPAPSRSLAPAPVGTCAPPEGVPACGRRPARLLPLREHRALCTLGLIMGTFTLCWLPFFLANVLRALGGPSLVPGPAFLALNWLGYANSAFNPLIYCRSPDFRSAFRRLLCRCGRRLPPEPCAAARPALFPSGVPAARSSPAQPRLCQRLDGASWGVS
# [7] = target: T1, Beta-2 adrenergic receptor; assay: Intrinsic activity at human beta2 adrenergic receptor in HEK293 cells assessed as increase in cAMP accumulation after 60 mins by HTRF assay relative to isoprenaline; type: functional, cell-based
# Target sequence in this assay (P07550 whole entry, looked up): as the sequence (P07550 whole entry) above
# Smooth muscle of trachea [8] = assay: Reduction in histamine-induced muscle contractions in Dunkin-Hartley guinea pig tracheal smooth muscle ring by measuring muscle tone; type: functional, Cavia porcellus
# Smooth muscle of trachea [9] = assay: Intrinsic activity at Dunkin-Hartley guinea pig tracheal smooth muscle ring assessed as reduction in histamine-induced muscle contractions by measuring muscle tone relative to isoprenaline; type: functional, Cavia porcellus
# [10] = Apparent permeability from apical to basolateral side in human Caco2 cells at 2 uM after 2 hrs by LC/MS/MS analysis; type: ADME, cell-based; conditions: Caco-2
# [11] = Apparent permeability from basolateral to apical side in human Caco2 cells at 2 uM after 2 hrs by LC/MS/MS analysis; type: ADME, cell-based; conditions: Caco-2
SMILES,EC50 ([1]; read-out: pEC50 (converted)),EC50 [2],Ratio (Homo sapiens),further results
O=c1ccc2c(C(CO)NCCc3cccc(Cl)c3)ccc(O)c2[nH]1 (stereo not drawn),0.00251 µM,3.16 µM,3.05,
CC(C)NCC(O)c1ccc(O)c(O)c1 (stereo not drawn) [ISOPROTERENOL],,,,Emax (Smooth muscle of trachea [3]): 254%; CLint scaled at 10 µM [4]: 6.74 L/h/kg; half-life at 10 µM [5]: 0.205 h
O=c1ccc2c([C@H](CO)NCCc3ccc(O)cc3)ccc(O)c2[nH]1,,,,EC50 ([1]; read-out: EC50): 0.328 µM
O=c1ccc2c(C(CO)NCCc3cccc(O)c3)ccc(O)c2[nH]1 (stereo not drawn),0.794 µM,,,
CC(C)(Cc1ccccc1)NC(CO)c1ccc(O)c2[nH]c(=O)ccc12 (stereo not drawn),0.0501 µM,> 10 µM,> 2.28,
CC(C)CC(=O)Nc1ccc(CCNC(CO)c2ccc(O)c3[nH]c(=O)ccc23)cc1 (stereo not drawn),0.631 µM,,,
O=c1ccc2c(C(CO)NCC(c3ccccc3)c3ccccc3)ccc(O)c2[nH]1 (stereo not drawn),0.631 µM,,,
CC(C)C(=O)Nc1ccc(CCNC(CO)c2ccc(O)c3[nH]c(=O)ccc23)cc1 (stereo not drawn),0.0501 µM,,,
CCCCC(=O)Nc1ccc(CCNC(CO)c2ccc(O)c3[nH]c(=O)ccc23)cc1 (stereo not drawn),0.316 µM,,,
CCc1cc2c(cc1CC)CC(NC(CO)c1ccc(O)c3[nH]c(=O)ccc13)C2 (stereo not drawn),0.316 µM,,,
O=c1ccc2c(C(CO)NCCCCOCCCCc3ccccc3)ccc(O)c2[nH]1 (stereo not drawn),0.251 µM,,,
COc1cccc(CCNC(CO)c2ccc(O)c3[nH]c(=O)ccc23)c1 (stereo not drawn),0.002 µM,0.631 µM,2.62,Intrinsic activity [7]: 52.5%
O=c1ccc2c(C(CO)NCCc3ccccc3O)ccc(O)c2[nH]1 (stereo not drawn),0.01 µM,> 10 µM,> 3.03,Intrinsic activity [7]: 54.2%
O=c1ccc2c([C@@H](CO)NCCc3ccc(O)cc3)ccc(O)c2[nH]1,,,,"EC50 ([1]; read-out: EC50): 0.00126 µM; CLint scaled at 10 µM [4]: 0.69 L/h/kg; half-life at 10 µM [5]: 1.81 h; Papp A→B at 2 h, 2 µM [10]: 4.3 nm/s; Papp B→A at 2 h, 2 µM [11]: 7.4 nm/s"
O=c1ccc2c(C(CO)NCCc3ccccc3Cl)ccc(O)c2[nH]1 (stereo not drawn),0.002 µM,> 10 µM,> 3.66,
COc1ccc(CCNC(CO)c2ccc(O)c3[nH]c(=O)ccc23)cc1 (stereo not drawn),0.02 µM,> 10 µM,> 2.71,
O=C(Cc1ccccc1)Nc1ccc(CCNC(CO)c2ccc(O)c3[nH]c(=O)ccc23)cc1 (stereo not drawn),0.00398 µM,,,
O=c1ccc2c(C(CO)NCCc3ccc(O)cc3)ccc(O)c2[nH]1 (stereo not drawn),0.00316 µM,> 10 µM,> 3.5,EC50 [6]: > 10 µM; Intrinsic activity [7]: 46.3%; pD2 (Smooth muscle of trachea [8]): 7.98; Emax (Smooth muscle of trachea [3]): 250%; Intrinsic activity (Smooth muscle of trachea [9]): 98%

# Further lines, with some results ahead:
EC50 ([1]; read-out: pEC50 (converted)),EC50 [2],SMILES,Ratio (Homo sapiens),further results
0.0126 µM,> 10 µM,O=c1ccc2c(C(CO)NCCCCc3ccccc3)ccc(O)c2[nH]1 (stereo not drawn),> 2.86,
0.316 µM,,O=c1ccc2c(C(CO)NCCc3c[nH]c4ccccc34)ccc(O)c2[nH]1 (stereo not drawn),,
0.00158 µM,0.832 µM,O=c1ccc2c(C(CO)NCCc3ccccc3)ccc(O)c2[nH]1 (stereo not drawn),2.72,EC50 [6]: > 10 µM; Intrinsic activity [7]: 57.4%; pD2 (Smooth muscle of trachea [8]): 7.81; Emax (Smooth muscle of trachea [3]): 255%; Intrinsic activity (Smooth muscle of trachea [9]): 100%
0.00501 µM,> 10 µM,COc1ccccc1CCNC(CO)c1ccc(O)c2[nH]c(=O)ccc12 (stereo not drawn),> 3.3,EC50 [6]: > 10 µM; Intrinsic activity [7]: 48.6%; pD2 (Smooth muscle of trachea [8]): 6.03; Emax (Smooth muscle of trachea [3]): 111%; Intrinsic activity (Smooth muscle of trachea [9]): 44%
0.00501 µM,> 10 µM,O=c1ccc2c(C(CO)NCCCCCCOCCCCc3ccccc3)ccc(O)c2[nH]1 (stereo not drawn),> 3.31,
0.0794 µM,,Nc1ccc(CCNC(CO)c2ccc(O)c3[nH]c(=O)ccc23)cc1 (stereo not drawn),,
0.01 µM,0.832 µM,O=c1ccc2c(C(CO)NCCCc3ccccc3)ccc(O)c2[nH]1 (stereo not drawn),1.89,EC50 [6]: > 10 µM; Intrinsic activity [7]: 55.8%
0.0398 µM,1.58 µM,O=c1ccc2c(C(CO)NCCc3ccc(Cl)cc3)ccc(O)c2[nH]1 (stereo not drawn),1.6,
0.0501 µM,,O=C(Nc1ccc(CCNC(CO)c2ccc(O)c3[nH]c(=O)ccc23)cc1)c1ccccc1 (stereo not drawn),,

# From ChEMBL document CHEMBL4270519, “Synthesis and biological evaluation of β2-adrenoceptor agonists bearing the 2-amino-2-phenylethanol scaffold” (Eur J Med Chem, 2018)
